The record followed here is a melting point compilation (Tetko et al.; mined from patent text by program, amines drawn as free bases though some values may be those of a salt).

Molecule `CCCCNS(=O)(=O)CC(O)C(O)C(CC1CCCCC1)NC(=O)C(Cc1c[nH]cn1)NS(=O)(=O)CCc1ccccc1` (stereo not drawn) showed a melting point of 208 to 210 °C. Next, `O=c1[nH]c(=O)n(C2CC(OCc3ccccc3)C(COC(c3ccccc3)(c3ccccc3)c3ccccc3)O2)cc1F` (stereo not drawn): 138 to 139 °C; `O=Cc1ccccc1C(=O)c1ccccc1`: 64 to 67 °C. `Cc1noc(C)c1CON1C(=O)c2ccccc2C1=O`: the melting point lay in the range of 144 to 146 °C. `COc1c(C(=O)Nc2ccc(-n3nc(C(F)(F)F)cc3C(F)(F)F)cc2)csc1Cl`: the melting point fell in the range of 119 to 120 °C. For `COc1cccc(CNc2nccc(-c3cc(N4CCN(CCCN5CCOCC5)CC4)c4cc(OC)ccc4c3)n2)c1`, the melting point fell in the range of 65 to 73 °C. With `Cn1c(C(F)(F)F)cc(=O)n(-c2ccc(Cl)cc2F)c1=O` the figure was 114 to 116 °C; with `CCOC(=O)c1cn(C2COC2)c2c(F)c(F)c(F)c(NCc3ccccc3)c2c1=O`, 127 to 128 °C.

On to `O=[N+]([O-])c1cnn2c(-c3ccco3)ccnc12`, for which the melting point fell in the range of 235 to 237 °C.

For the molecule `O=c1[nH]c2ccc([C@H]3CC[C@H](N(CCCc4ccc(F)cc4)Cc4ccoc4)CC3)cc2o1`, the melting point was 225 to 227 °C. In turn, `CCCOc1ccc(S(=O)(=O)Cl)cc1C(=O)O` gave a melting point of 121 to 124 °C.

`CC1(OC(=O)c2ccccc2)C(OC(=O)c2ccccc2)OC(COC(=O)c2ccccc2)C1OC(=O)c1ccccc1` (stereo not drawn) returned a melting point of 201 to 209 °C. With `CCOCc1nc2cnc3cc(Br)cnc3c2n1CC(C)C` the figure was 115 to 116 °C; with `CCCn1cc2c(C3C(=O)Nc4ccc(Br)cc43)nc(NCCCN(C)C)nc2n1` (stereo not drawn), 286 to 290 °C.

In turn, `CCOC(=O)c1ncn2c1[C@@H]1CCCN1C(=O)c1cc(F)ccc1-2` displayed a melting point of 194 to 195 °C.

`N#Cc1cc(Cn2cncn2)ccc1-c1ccc(OS(N)(=O)=O)cc1`: the melting point was 157 to 160 °C. With `N=C(NCc1ccco1)NN=Cc1c(Cl)cccc1Cl` the figure was 134 to 136 °C; with `CS(=O)(=O)c1ccc(-c2cc(CO)nn2C2CCCCC2)cc1`, 148 °C; with `CCOC(=O)c1conc1-c1ccc(-c2ccccc2)cc1`, 81 to 82 °C. With `Cc1oc(-c2ccccc2)nc1COc1ccc(CN(O)C(N)=O)cc1Cl` the figure was 180 to 182 °C; with `CCN(CC)C(=O)Nc1ccc(S(=O)(=O)N2C(=O)C(NCCOCCO)(c3ccccc3Cl)c3cc(Cl)ccc32)cc1` (stereo not drawn), 114 to 118 °C. `COc1ccc(S(=O)(=O)N(Cc2ccccc2)C(Cc2nnn(C)n2)C(=O)NO)cc1` (stereo not drawn) displayed a melting point of 72 to 75 °C. With `Cc1ccc(-c2occc2C#N)cc1` the figure was 66 °C; with `CC(Oc1ccc(F)cc1F)(C(=O)Nc1nc(CC(=O)O)c(Cl)s1)c1ccc(S(C)(=O)=O)cc1` (stereo not drawn), 109 to 111 °C; with `CCn1ncc2c(NCC3CCC(CO)CC3)c3ccccc3nc21` (stereo not drawn), 188 to 190 °C. As for `CS(=O)(=O)Oc1cnc2ccccc2c1O`, the melting point is 224 °C. `CCCCCCCCCCCCSCCC(=O)OC(CSCCCCCCCCCCCC)CSCCCCCCCCCCCC` gave a melting point of 31 to 32 °C. Next, `COc1ccc2c(=O)c(-c3nnnn3C)cn(C)c2c1`: 270 to 273 °C. `CC(C)=CCN(CC=C(C)C)Cc1noc(-c2ncn3c2[C@@H]2CCCN2C(=O)c2c(Cl)cccc2-3)n1` showed a melting point of 137 to 140 °C.

Regarding `CCOC(=O)c1cn2cnc3ccccc3c2c1C(=O)OCC`, the melting point lay within 125 to 126 °C.

Consider `O=C1NCC[C@H](c2ccc(C(F)(F)F)cc2)[C@@H]1c1ccccc1` (relative stereo), for which the melting point lay in the range of 155 to 156 °C.

With `C=Cc1nc(-c2cn(C)c3ccccc23)no1`, the melting point lay within 54 to 55 °C. Next, `CC(C)C[C@@H](NC(=O)c1cnc(N2CCC(N3C(=O)OCc4ccccc43)CC2)c(Cl)c1)C(N)=O`: 139 to 142 °C.

By melting point is commonly meant the temperature, or range, at which the solid turns liquid.
